Experimental data published in US8314127B2, “Piperidine derivatives” (Astrazeneca AB, priority 2005, dated 2012).

Legend:
CCR3 [1] = target: T1, CCR3 (Homo sapiens, UniProt P51677); test: Compound affinity at human recombinant CCR3 receptors, radioligand competition on CHO-K1 cell membranes; assay type: binding; set-up: expressed in transfected cells; host or cells: CHO-K1; settings: 2 nM [3H]-4-(2,4-dichloro-3-methylphenoxy)-1'-[4-(methylsulfonyl)benzoyl]-1,4'-bipiperidine, 2 h at 37° C., mean of minimum 2 experiments; for Ki: read-out: CCR3 pKi (converted)
T1 sequence (P51677 1-355): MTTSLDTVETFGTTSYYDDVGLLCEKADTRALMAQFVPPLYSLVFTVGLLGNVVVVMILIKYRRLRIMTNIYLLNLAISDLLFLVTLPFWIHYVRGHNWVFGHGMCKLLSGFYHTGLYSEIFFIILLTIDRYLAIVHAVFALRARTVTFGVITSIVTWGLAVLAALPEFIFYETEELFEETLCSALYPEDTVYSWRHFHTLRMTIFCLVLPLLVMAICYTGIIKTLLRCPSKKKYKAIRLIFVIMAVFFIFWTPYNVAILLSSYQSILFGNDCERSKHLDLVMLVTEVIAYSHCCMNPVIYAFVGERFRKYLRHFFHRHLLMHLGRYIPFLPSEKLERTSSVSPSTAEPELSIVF

CCR3 [2] = target: T1, CCR3; test: Eotaxin-2-induced shape change in eosinophils in human blood in vitro; assay type: cell-based; set-up: Human blood, collected by venous puncture into 9 mL lithium-heparin tubes; endogenous in cells; host or cells: eosinophils in human whole blood; settings: eotaxin-2 E/[A] curve displacement, 4 min at 37° C., flow cytometry forward scatter, read-out: CCR3 pA2 (converted)
human H1 receptor = target: T2, human H1 receptor (Homo sapiens, UniProt P35367); test: Histamine H1 receptor binding, competition displacement of [3H]-pyrilamine; settings: 1 nM [3H]-pyrilamine, membranes from recombinant CHO-K1 cells, 1 hour at room temperature; read-out: H1 pKi (converted)
T2 construct: purchased Euroscreen SA, Brussels, Belgium ES-390-M; host or cells: CHO-K1
T2 sequence (P35367 whole entry): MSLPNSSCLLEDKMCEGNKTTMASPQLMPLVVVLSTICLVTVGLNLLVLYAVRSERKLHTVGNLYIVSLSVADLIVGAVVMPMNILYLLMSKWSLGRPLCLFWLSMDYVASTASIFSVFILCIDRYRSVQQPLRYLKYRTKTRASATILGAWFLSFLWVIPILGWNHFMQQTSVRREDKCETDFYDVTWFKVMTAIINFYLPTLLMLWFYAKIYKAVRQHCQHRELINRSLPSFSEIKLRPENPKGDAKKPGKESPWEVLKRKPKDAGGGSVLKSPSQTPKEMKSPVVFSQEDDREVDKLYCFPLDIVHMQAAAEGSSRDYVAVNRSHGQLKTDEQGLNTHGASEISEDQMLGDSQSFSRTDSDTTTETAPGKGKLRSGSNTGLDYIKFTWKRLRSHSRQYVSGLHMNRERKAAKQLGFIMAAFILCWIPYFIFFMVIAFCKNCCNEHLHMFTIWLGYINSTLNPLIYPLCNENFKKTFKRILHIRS

COc1ccccc1C[C@@H](C(=O)O)N1CCC(CN2CCC(Oc3ccc(Cl)c(Cl)c3C)CC2)CC1 [Example 2, (2S)-2-[4-[[4-(3,4-dichloro-2-methyl-phenoxy)-1-piperidyl]methyl]-1-piperidyl]-3-(2-methoxyphenyl)-propanoic acid] showed a Ki (CCR3 [1]) of 0.631 nM and a Kb (CCR3 [2]) of 20 nM.

Cc1c(OC2CCN(CC3CCN([C@@H](Cc4ccccc4)C(=O)O)CC3)CC2)ccc(C#N)c1Cl [Example 15, (22S)-2-(4-{[4-(3-chloro-4-cyano-2-methylphenoxy)-piperidin-1-yl]methyl}piperidin-1-yl)-3-phenylpropanoic acid] was tested, and the “CCR3 pKi” value (CCR3 [1]) was 8.2.

CCc1c(OC2CCN(CC3CCN([C@@H](Cc4ccc(F)cc4)C(=O)O)CC3)CC2)ccc(Cl)c1Cl [Example 14, (2S)-2-[4-[[4-(3,4-dichloro-2-ethyl-phenoxy)-1-piperidyl]methyl]-1-piperidyl]-3-(4-fluorophenyl)-propanoic acid] showed a Ki (CCR3 [1]) of 0.501 nM and a Kb (CCR3 [2]) of 200 nM.

Cc1c(OC2CCN(CC3CCN([C@@H](Cc4ccc(C#N)cc4)C(=O)O)CC3)CC2)ccc(Cl)c1Cl [Example 3, (2S)-3-(4-cyanophenyl)-2-[4-[[4-(3,4-dichloro-2-methyl-phenoxy)-1-piperidyl]methyl]-1-piperidyl]-propanoic acid] showed a Ki (human H1 receptor) of 31.6 nM, a Ki (CCR3 [1]) of 0.501 nM and a Kb (CCR3 [2]) of 20 nM.

CCc1c(OC2CCN(CC3CCN([C@@H](Cc4ccccc4)C(=O)O)CC3)CC2)ccc(Cl)c1Cl [Example 13, (2S)-2-[4-[[4-(3,4-dichloro-2-ethyl-phenoxy)-1-piperidyl]methyl]-1-piperidyl]-3-phenylpropanoic acid] gave a Ki (human H1 receptor) of 100 nM, a Ki (CCR3 [1]) of 1.26 nM and a Kb (CCR3 [2]) of 200 nM.
